Laboratory results: patent US20150329512A1, “METHOD AND PHARMACEUTICAL COMPOSITION FOR TREATING LUNG CANCER” (National Dong Hua University, priority 2014, published 2015)

Tests used:
[1] = system: A549 cells; assay: MTT assay, cell viability; assay type: cell-based, human
Procedure: (§1) A549 (lung cancer cell line, non-resistance) and Anti-Dox-A549 (lung cancer cell line with resistance to Doxorubicin) were maintained in DMEM supplemented with 10% fetal bovine serum (FBS, Gibco), pH 7.4, 37° C. and with continuous circulation of 5% CO2. The medium was changed every 2 days and the cells were trypsinized with trypsin/EDTA when reaching 80%-90% confluence.
(§2) A549 and Anti-Dox-A549 were treated by the following treatment (Table 1) for 24 or 48 hr for examining the effects of HCD, PG, and Dox on their viability.
(§3) Dox1is referred as Dox of 1 μM; Dox2.5 is referred as Dox of 2.5 μM; Dox5 is referred as Dox of 5 μM; Dox10 is referred as Dox of 10 μM; Dox100 is referred as Dox of 100 μM. HCD2.5 is referred as HCD of 2.5 μM; HCD10 is referred as HCD of 10 μM; HCD25 is referred as HCD of 25 μM; HCD50 is referred as HCD of 50 μM. PG2.5 is referred as PG of 2.5 μM; PG5 is referred as PG of 5 μM; PG10 is referred as PG of 10 μM; PG20 is referred as PG of 20 μM.
(§4) In this example, the effects of HCD, PG, and Dox on the viability of A549 and anti-Dox-A549 were examined. The MTT assay was employed for this purpose. The MTT (3-(4-,5-dimethylthiazol-2-yl)-2,5-diphenyltetrazolium bromide) assay is a common colorimetric method in the field for cell viability analysis. MTT (yellow tetrazolium salt) is reduced to a purple formazan by living cells and detection to the purple formazan can be calculated as the cell viability.
(§5) Briefly, cells (A549 or Anti-Dox-A549) were seeded in 96-well plate (7×10^3 cell per well) and incubated overnight (37° C., 5% CO2).

[2] = system: Anti-Dox-A549 cells; assay: MTT assay, cell viability; assay type: cell-based, human
Procedure: as §1, §2, §3, §4, §5

[3] = system: A549 cells; assay: Cell cycle analysis by flow cytometer (PI staining); assay type: cell-based, human; conditions: for G0/G1 (%) / G2/M (%) / S (%) / Sub G1 (%): A549
Procedure: (§6) The results of Example 2 in cell viability hinted the effects of HCD, PG, and Dox on arresting cell cycle. In this example, the phase of cell cycle of A549 cells and Anti-Dox-A549 cells after the treatment listed in Table 1 was determined by flow cytometer. Briefly, 7×10^4 cells per well were to inoculated in 12-wells plate and incubated overnight at 37° C., 5% CO2. Then, cells were treated according to the treatment listed in Table 1 by indicated time period. After treatment, cells were harvested by trypsin and fixed with 70% ethanol at −20° C. for at least 3 hr. The cells were washed in cold PBS twice and then incubated with 1 ml (v/v) staining solution (20 μg/m1 propidium iodide (PI), 0.1% Triton X-100, 0.2 mg/ml Rnase) at 37° C. for 30 minutes. Lastly, cells were analyzed by flow cytometer (Cytomics™ FC500, Backman, Fullerton, Calif., USA). Data from 10,000 cells were collected for each experimental group.

[4] = system: Anti-Dox-A549 cells; assay: as above; assay type: cell-based, human; conditions: for G0/G1 (%) / G2/M (%) / S (%) / Sub G1 (%): Anti-Dox-A549
Procedure: as §6

[5] = system: human lung cancer in lung of mice; assay: Mouse model bearing human lung cancer in lung (A549 or Anti-Dox-A549 cells injected)
Procedure: The animal experiments were approved by the National Dong-Hwa University Animal Ethics Committee and the experimental protocols were used according to the “Guide for the Care and Use of Laboratory Animals” of National Dong-Hwa University. 1×10^7 of A549 cells or Anti-Dox-A549 cells were suspended in PBS to prepare cell suspensions. On day 0, C57/BL6 mice (6-8 weeks old, n=6) were weighted and anesthetic using pentobarbital (5 mg/ml). Then, the mice were injected with the cell suspension (1×10^7 cells per mouse) into the lung by IT. The injection was repeated every 7 days for 21 days. Another group of mice were injected with 10% EtOH as comparative group according to the same procedure set forth above.
After the establishment of human lung cancer in the experimental mice, the mice were maintained for one more week and then treated with HCD (0.0318 or 1.272 mg/kg body weight, in 10% ETOH with PBS), PG (0.1615 or 0.646 mg/kg body weight, in 10% ETOH with PBS) or 10% EtOH by IT injection (intrathecal injection) to the lung. The body weight was monitored every five days for thirty days. After thirty days, the mice were sacrificed and the lungs were checked for marker of human lung adenocarcinoma by H&E and IHC staining. The livers, kidneys and spleens of the mice were also examined to confirm the cytotoxicity of HCD and PG and to see if there was any metastasis happened.

[6] = pre-treatment (HCD especially 10 or 25 μM), then Dox 1 or 2.5 μM
[7] = mice treated by IT injection to the lung, after thirty days, data not shown

IC50 ([1]; 24 hr treatment): ~50 µM | IC50 ([2]; 24 hr treatment): ~50 µM
Compound: CC1=CCCC2C1(C)CCC(C)C2(C)CCC1=CC(=O)OC1O (stereo not drawn) [HCD, 16-hydroxy-cleroda-3,13-dine-15,16-olide]
effect of pre-treatment on the effects of Dox on cell viability [1, 6]: enhance the effects of Dox on viability | effect of pre-treatment on the effects of Dox on cell viability [2, 6]: rescue the sensitivity of Anti-Dox-A549 cells to Dox | cell cycle effect compared with the control group ([3]; A549 cells, Tables 3 and 5): increased cell cycle arrest at G2/M phase | cell cycle effect of pre-treatment and subsequent Dox ([3]; A549 cells, Tables 9 and 11): increased sub G1 phase and arrested at G2/M phase | G0/G1 (%) ([3]; HCD 2.5 μM, 24 hr): 77.3 ± 0.9% | G2/M (%) ([3]; HCD 2.5 μM, 24 hr): 9.7 ± 0.9% | S (%) ([3]; HCD 2.5 μM, 24 hr): 9.6 ± 0.5% | Sub G1 (%) ([3]; HCD 2.5 μM, 24 hr): 1.0 ± 0.2% | G0/G1 (%) ([3]; HCD 2.5 μM, 36 hr): 74.4 ± 2.6 % | G2/M (%) ([3]; HCD 2.5 μM, 36 hr): 11.8 ± 0.9% | S (%) ([3]; HCD 2.5 μM, 36 hr): 9.5 ± 0.4 % | Sub G1 (%) ([3]; HCD 2.5 μM, 36 hr): 1.1 ± 0.1% | G0/G1 (%) ([3]; HCD 2.5 μM, 48 hr): 80.4 ± 0.2% | G2/M (%) ([3]; HCD 2.5 μM, 48 hr): 8.9 ± 0.1% | S (%) ([3]; HCD 2.5 μM, 48 hr): 6.9 ± 0.1% | Sub G1 (%) ([3]; HCD 2.5 μM, 48 hr): 1.8 ± 0.2% | G0/G1 (%) ([3]; HCD 10 μM, 24 hr): 85.6 ± 6.9 % | G2/M (%) ([3]; HCD 10 μM, 24 hr): 6.1 ± 0.5 % | S (%) ([3]; HCD 10 μM, 24 hr): 3.9 ± 2.8 % | Sub G1 (%) ([3]; HCD 10 μM, 24 hr): 1 ± 0.2% | G0/G1 (%) ([3]; HCD 10 μM, 36 hr): 75.4 ± 1.8% | G2/M (%) ([3]; HCD 10 μM, 36 hr): 10.0 ± 1.2% | S (%) ([3]; HCD 10 μM, 36 hr): 10.7 ± 0.4 % | Sub G1 (%) ([3]; HCD 10 μM, 36 hr): 1.4 ± 0.2% | G0/G1 (%) ([3]; HCD 10 μM, 48 hr): 75.6 ± 1.8% | G2/M (%) ([3]; HCD 10 μM, 48 hr): 11.2 ± 0.2 % | S (%) ([3]; HCD 10 μM, 48 hr): 8.7 ± 0.2% | Sub G1 (%) ([3]; HCD 10 μM, 48 hr): 1.8 ± 0.2% | G0/G1 (%) ([3]; HCD 25 μM, 24 hr): 62.9 ± 3.3% | G2/M (%) ([3]; HCD 25 μM, 24 hr): 22.8 ± 3.0 % | S (%) ([3]; HCD 25 μM, 24 hr): 11.1 ± 1.3% | Sub G1 (%) ([3]; HCD 25 μM, 24 hr): 1.5 ± 0.2% | G0/G1 (%) ([3]; HCD 25 μM, 36 hr): 62.3 ± 1.3 % | G2/M (%) ([3]; HCD 25 μM, 36 hr): 22.8 ± 1.5 % | S (%) ([3]; HCD 25 μM, 36 hr): 9.2 ± 0.7 % | Sub G1 (%) ([3]; HCD 25 μM, 36 hr): 2.7 ± 0.1 % | G0/G1 (%) ([3]; HCD 25 μM, 48 hr): 61.7 ± 1.2 % | G2/M (%) ([3]; HCD 25 μM, 48 hr): 22.7 ± 0.5 % | S (%) ([3]; HCD 25 μM, 48 hr): 7.9 ± 1.3% | Sub G1 (%) ([3]; HCD 25 μM, 48 hr): 1.9 ± 0.5 % | cell cycle effect compared with the control group ([4]; Anti-Dox-A549 cells, Tables 2 and 4): increased cell cycle arrest at G2/M phase | cell cycle effect of pre-treatment and subsequent Dox ([4]; Anti-Dox-A549 cells, Tables 8 and 10): increased sub G1 phase and arrested at G2/M phase | G0/G1 (%) ([4]; HCD 2.5 μM, 24 hr): 68.2 ± 2.8% | G2/M (%) ([4]; HCD 2.5 μM, 24 hr): 16.5 ± 1.8% | S (%) ([4]; HCD 2.5 μM, 24 hr): 12.1 ± 0.8% | Sub G1 (%) ([4]; HCD 2.5 μM, 24 hr): 0.63 ± 0.05% | G0/G1 (%) ([4]; HCD 2.5 μM, 36 hr): 80.3 ± 0.6% | G2/M (%) ([4]; HCD 2.5 μM, 36 hr): 9.6 ± 0.3% | S (%) ([4]; HCD 2.5 μM, 36 hr): 7.4 ± 0.2% | Sub G1 (%) ([4]; HCD 2.5 μM, 36 hr): 0.93 ± 0.2% | G0/G1 (%) ([4]; HCD 2.5 μM, 48 hr): 82.1 ± 0.7% | G2/M (%) ([4]; HCD 2.5 μM, 48 hr): 8.9 ± 0.7% | S (%) ([4]; HCD 2.5 μM, 48 hr): 6.1 ± 0.3% | Sub G1 (%) ([4]; HCD 2.5 μM, 48 hr): 1.56 ± 0.2% | G0/G1 (%) ([4]; HCD 10 μM, 24 hr): 83.6 ± 1.4 % | G2/M (%) ([4]; HCD 10 μM, 24 hr): 6.6 ± 0.55 % | S (%) ([4]; HCD 10 μM, 24 hr): 7.0 ± 0.6% | Sub G1 (%) ([4]; HCD 10 μM, 24 hr): 0.73 ± 0.05% | G0/G1 (%) ([4]; HCD 10 μM, 36 hr): 75.8 ± 0.3 % | G2/M (%) ([4]; HCD 10 μM, 36 hr): 11.8 ± 1.0 % | S (%) ([4]; HCD 10 μM, 36 hr): 9.2 ± 0.4 % | Sub G1 (%) ([4]; HCD 10 μM, 36 hr): 1 ± 0.2% | G0/G1 (%) ([4]; HCD 10 μM, 48 hr): 82.2 ± 0.7% | G2/M (%) ([4]; HCD 10 μM, 48 hr): 8.3 ± 0.2% | S (%) ([4]; HCD 10 μM, 48 hr): 6.4 ± 0.3% | Sub G1 (%) ([4]; HCD 10 μM, 48 hr): 1.76 ± 0.1% | G0/G1 (%) ([4]; HCD 25 μM, 24 hr): 70.5 ± 2.7% | G2/M (%) ([4]; HCD 25 μM, 24 hr): 19.3 ± 1.7 % | S (%) ([4]; HCD 25 μM, 24 hr): 7.9 ± 0.8 % | Sub G1 (%) ([4]; HCD 25 μM, 24 hr): 1.3 ± 0.1 % | G0/G1 (%) ([4]; HCD 25 μM, 36 hr): 73.9 ± 2.7 % | G2/M (%) ([4]; HCD 25 μM, 36 hr): 17.7 ± 1.9 % | S (%) ([4]; HCD 25 μM, 36 hr): 5.4 ± 0.9% | Sub G1 (%) ([4]; HCD 25 μM, 36 hr): 3.43 ± 0.2 % | G0/G1 (%) ([4]; HCD 25 μM, 48 hr): 3.73 ± 1.6 % | G2/M (%) ([4]; HCD 25 μM, 48 hr): 21.8 ± 2.4 % | S (%) ([4]; HCD 25 μM, 48 hr): 11.2 ± 1.3 % | Sub G1 (%) ([4]; HCD 25 μM, 48 hr): 27.2 ± 0.5 % | H&E and IHC staining of the lung ([5]; HCD 0.0318 or 1.272 mg/kg, PG 0.1615 or 0.646 mg/kg body weight, IT injection to the lung, after thirty days): less cell invention around blood vessels 1 and less cell accumulation 2 around the trachea 4 | body weight of the experimental mice ([5]; HCD 0.0318 or 1.272 mg/kg, PG 0.1615 or 0.646 mg/kg body weight, IT injection to the lung, monitored every five days for thirty days): did not show significantly change | injury of livers, kidneys and spleens (staining) [5, 7]: did not cause serious cytotoxicity | metastasis in livers, kidneys and spleens [5, 7]: no metastasis happened
